Conditions in all cases: 10 mM phosphate buffer, 99.9% killing
For one assay, the system named is Psuedomonas aeruginosa. In words: Bacterial lysis assay (broth dilution), minimal bactericidal concentration. The assay is classed as cell-based, Pseudomonas aeruginosa. From the text: (§1) The assays for growth inhibition of a microbial target can be used to derive a minimum bactericidal concentration (MBC) value for the peptide, i.e., the concentration of peptide required to kill 99.9% of the microbial sample being tested. This value is well known to those in the art as representative of the effectiveness of a particular antimicrobial agent (e.g., an antibiotic) against a particular organism or group of organisms. In assays to detect the MBC of a peptide, growth inhibition of a bacterial population also can be measured with reference to the number of colony forming units (cfu) after exposure to a peptide relative to a control experiment without a peptide.
(§2) Bacterial lysis assay. Bacterial lysis assays were conducted in a manner similar to that described previously (Lehrer, R. I., M. E. Selsted, D. Szklarek, and F. J. 1983. Infect. Immun. 42: 10-4, 1983; Miller, M. A., R. F. Garry, J. M. Jaynes, and R. C. Montelaro, AIDS Res Hum Retroviruses 7: 511-519, 1991). Bacterial suspensions were cultured in Luria-Bertani Broth to mid-log growth phase and washed by two cycles of centrifugation and suspension in 10 mM phosphate buffer. The Abs600 of the suspension was adjusted with 10 mM phosphate buffer such that, upon dilution, 5-10x10^5 cfu/mL would be treated in the assay. Bacteria were incubated for 1h with two-fold dilutions of peptides (100µM to 100 nM) in 96-well plates using 10 mM phosphate buffer, pH 7.2, as a diluent. Ten-fold dilutions of bacteria were performed to 1:1000; a 100µl aliquot from each condition was spread on the surface of tryptic soy agar plates (Difco, Detroit, Mich.) which were incubated overnight. Colonies of surviving bacteria (cfu, colony-forming units) were counted and compared to untreated controls to determine the amount of peptide-induced killing under each condition. Log killing is defined as the log of the ratio of cfu present before and after treatment with peptide. The minimal bactericidal concentration, MBC, is the peptide concentration at which 99.9% (three log) killing is achieved (Pearson et al., Antimicrob. Agents Chemother. 18: 699-708, 1980).
(§3) Results. Representative gram positive (S. aureus) and gram negative (P. aeruginosa) clinical isolates were used as the index bacteria to survey the peptides described in this invention.
(§4) A limitation of many host-derived antimicrobial peptides is their decreased activity at physiologic (150 mM) NaCl concentration. See Friedrich et al., Antimicrobial Agents and Chemotherapy 43:1542-1548. The activity of eLLPs and LBUs of this invention were compared to an expanded list of clinical bacterial isolates. These are summarized in Table 2 by comparing their MBCs in phosphate buffer alone (low salt) and phosphate buffer containing 150 mM NaCl (physiologic conditions). Inspection of this table would lead one skilled in the art to conclude that the activity of eLLPs and LBUs compare favorably to the host derived antimicrobial peptides as it relates to the spectrum and potency of antimicrobial activity.

In the next assay the test system is Staphylococcus aureus. Described as above. The assay is classed as cell-based.
Description: as §1, §2, §3, §4

Assay [1] relates to Methicillin Resistant S. aureus. Format: cell-based.
Description: as §1, §2, §4

Converted amounts (≈) assume the structure as drawn. Where two headings read alike, the source gives them in different places. Residues, ends and D or L forms follow the SMILES beside them. No end group written: not given here.

For orientation: MBC means the lowest tested concentration that kills the bacteria rather than only halting them. A high value points to less potent killing. Regarding “RRVVRRVRRVVRRVVRVVRRVVRRVRRVVRRVVRVVRRVVRR [LBU-3.5, RRVVRRVRRVVRRVVRVVRRVVRRVRRVVRRVVRVVRRVVRR]”, the MBC with Psuedomonas aeruginosa (0 mM NaCl) was 0.4 µM; against Psuedomonas aeruginosa (150 mM NaCl), 0.4 µM; against Staphylococcus aureus (0 mM NaCl) it was 1000 nM; against Staphylococcus aureus (150 mM NaCl), 600 nM; in assay [1] (0 mM NaCl), 1500 nM; in assay [1] (150 mM NaCl), 200 nM.

In the case of “RVVRVVRRVVRRVRRVVRRVVRVVRRVVRRVRRVVRRVVRVVRRVVRR [LBU-4, RVVRVVRRVVRRVRRVVRRVVRVVRRVVRRVRRVVRRVVRVVRRVVRR]”, the MBC in the assay on Psuedomonas aeruginosa (0 mM NaCl) stood at 0.8 µM; against Psuedomonas aeruginosa (150 mM NaCl), 0.4 µM; against Staphylococcus aureus (0 mM NaCl), 800 nM; against Staphylococcus aureus (150 mM NaCl), 800 nM.

Take `CC(C)[C@H](NC(=O)[C@H](Cc1c[nH]c2ccccc12)NC(=O)[C@H](CCCNC(=N)N)NC(=O)[C@H](CCCNC(=N)N)NC(=O)[C@@H](NC(=O)[C@@H](NC(=O)[C@H](CCCNC(=N)N)NC(=O)[C@@H](NC(=O)[C@@H](NC(=O)[C@H](CCCNC(=N)N)NC(=O)[C@H](CCCNC(=N)N)NC(=O)[C@H](Cc1c[nH]c2ccccc12)NC(=O)[C@@H](NC(=O)[C@H](CCCNC(=N)N)NC(=O)[C@H](CCCNC(=N)N)NC(=O)[C@@H](NC(=O)[C@H](CCCNC(=N)N)NC(=O)[C@H](CCCNC(=N)N)NC(=O)[C@@H](NC(=O)[C@H](Cc1c[nH]c2ccccc12)NC(=O)[C@H](CCCNC(=N)N)NC(=O)[C@@H](N)CCCNC(=N)N)C(C)C)C(C)C)C(C)C)C(C)C)C(C)C)C(C)C)C(C)C)C(=O)N[C@@H](CCCNC(=N)N)C(=O)N[C@@H](CCCNC(=N)N)C(=O)O` [WLBU-2, RRWVRRVRRV WRRVV RVVRR WVRR] (H-RRWVRRVRRVWRRVVRVVRRWVRR-OH): the MBC with Psuedomonas aeruginosa (0 mM NaCl) amounted to 0.2 µM (≈ 0.68 µg/mL); with Psuedomonas aeruginosa (150 mM NaCl), 0.1 µM (≈ 0.34 µg/mL); against Staphylococcus aureus (0 mM NaCl), 1000 nM (≈ 3.4 µg/mL); against Staphylococcus aureus (150 mM NaCl), 600 nM (≈ 2.04 µg/mL); in assay [1] (0 mM NaCl), 200 nM (≈ 0.68 µg/mL); in assay [1] (150 mM NaCl), 100 nM (≈ 0.34 µg/mL).

“RVVRVVRRWVRRVRRVWRRVVRVVRRWVRRVRRVWRRVVRVVRRWRVV [WLBU-4, RVVRVVRRWVRRVRRVWRRVVRVVRRRVVRVVRRWRVV RWVRR VRRVW]”: the MBC was 1.5 µM with Psuedomonas aeruginosa (0 mM NaCl); 0.4 µM in the assay with Psuedomonas aeruginosa (150 mM NaCl); 3,000 nanomolar against Staphylococcus aureus (0 mM NaCl); 600 nM against Staphylococcus aureus (150 mM NaCl); 1500 nM in assay [1] (0 mM NaCl); 200 nM in assay [1] (150 mM NaCl).

As to `CC(C)[C@H](N)C(=O)N[C@@H](CCCNC(=N)N)C(=O)N[C@@H](CCCNC(=N)N)C(=O)N[C@H](C(=O)N[C@@H](Cc1c[nH]c2ccccc12)C(=O)N[C@@H](CCCNC(=N)N)C(=O)N[C@@H](CCCNC(=N)N)C(=O)N[C@H](C(=O)N[C@H](C(=O)N[C@@H](CCCNC(=N)N)C(=O)N[C@H](C(=O)N[C@H](C(=O)N[C@@H](CCCNC(=N)N)C(=O)N[C@@H](CCCNC(=N)N)C(=O)N[C@@H](Cc1c[nH]c2ccccc12)C(=O)N[C@H](C(=O)N[C@@H](CCCNC(=N)N)C(=O)N[C@@H](CCCNC(=N)N)C(=O)N[C@H](C(=O)N[C@@H](CCCNC(=N)N)C(=O)N[C@@H](CCCNC(=N)N)C(=O)N[C@H](C(=O)N[C@@H](Cc1c[nH]c2ccccc12)C(=O)N[C@@H](CCCNC(=N)N)C(=O)N[C@@H](CCCNC(=N)N)C(=O)N[C@H](C(=O)N[C@H](C(=O)N[C@@H](CCCNC(=N)N)C(=O)N[C@H](C(=O)N[C@H](C(=O)N[C@@H](CCCNC(=N)N)C(=O)N[C@@H](CCCNC(=N)N)C(=O)N[C@@H](Cc1c[nH]c2ccccc12)C(=O)N[C@H](C(=O)N[C@@H](CCCNC(=N)N)C(=O)N[C@@H](CCCNC(=N)N)C(=O)O)C(C)C)C(C)C)C(C)C)C(C)C)C(C)C)C(C)C)C(C)C)C(C)C)C(C)C)C(C)C)C(C)C)C(C)C)C(C)C` [WLBU-3, VRRVWRRVVRVVRRWVRRVRRVWRRVVRVVRRWVRR] (H-VRRVWRRVVRVVRRWVRRVRRVWRRVVRVVRRWVRR-OH), the MBC against Psuedomonas aeruginosa (0 mM NaCl) is 1.5 µM (≈ 7.44 µg/mL); with Psuedomonas aeruginosa (150 mM NaCl), 0.8 µM (≈ 3.97 µg/mL); with Staphylococcus aureus (0 mM NaCl), 3,000 nanomolar; with Staphylococcus aureus (150 mM NaCl), 600 nM (≈ 2.98 µg/mL); in assay [1] (0 mM NaCl) it was 400 nM (≈ 1.98 µg/mL); in assay [1] (150 mM NaCl), 100 nM (≈ 0.496 µg/mL).

For `CC(C)[C@H](N)C(=O)N[C@@H](CCCNC(=N)N)C(=O)N[C@@H](CCCNC(=N)N)C(=O)N[C@H](C(=O)N[C@H](C(=O)N[C@@H](CCCNC(=N)N)C(=O)N[C@@H](CCCNC(=N)N)C(=O)N[C@H](C(=O)N[C@H](C(=O)N[C@@H](CCCNC(=N)N)C(=O)N[C@H](C(=O)N[C@H](C(=O)N[C@@H](CCCNC(=N)N)C(=O)N[C@@H](CCCNC(=N)N)C(=O)N[C@H](C(=O)N[C@H](C(=O)N[C@@H](CCCNC(=N)N)C(=O)N[C@@H](CCCNC(=N)N)C(=O)N[C@H](C(=O)N[C@@H](CCCNC(=N)N)C(=O)N[C@@H](CCCNC(=N)N)C(=O)N[C@H](C(=O)N[C@H](C(=O)N[C@@H](CCCNC(=N)N)C(=O)N[C@@H](CCCNC(=N)N)C(=O)N[C@H](C(=O)N[C@H](C(=O)N[C@@H](CCCNC(=N)N)C(=O)N[C@H](C(=O)N[C@H](C(=O)N[C@@H](CCCNC(=N)N)C(=O)N[C@@H](CCCNC(=N)N)C(=O)N[C@H](C(=O)N[C@H](C(=O)N[C@@H](CCCNC(=N)N)C(=O)N[C@@H](CCCNC(=N)N)C(=O)O)C(C)C)C(C)C)C(C)C)C(C)C)C(C)C)C(C)C)C(C)C)C(C)C)C(C)C)C(C)C)C(C)C)C(C)C)C(C)C)C(C)C)C(C)C)C(C)C)C(C)C` [LBU-3, VRRVVRRVVRVVRRVVRRVRRVVRRVVRVV RRVVRR] (H-VRRVVRRVVRVVRRVVRRVRRVVRRVVRVVRRVVRR-OH), the MBC against Psuedomonas aeruginosa (0 mM NaCl) was 1.5 µM (≈ 6.92 µg/mL); against Psuedomonas aeruginosa (150 mM NaCl), 0.8 µM (≈ 3.69 µg/mL); against Staphylococcus aureus (0 mM NaCl), 1500 nM (≈ 6.92 µg/mL); against Staphylococcus aureus (150 mM NaCl), 1500 nM (≈ 6.92 µg/mL).

As for `CC(C)[C@H](NC(=O)[C@H](Cc1c[nH]c2ccccc12)NC(=O)[C@H](CCCNC(=N)N)NC(=O)[C@H](CCCNC(=N)N)NC(=O)[C@@H](NC(=O)[C@@H](NC(=O)[C@H](CCCNC(=N)N)NC(=O)[C@@H](NC(=O)[C@@H](NC(=O)[C@@H](N)CCCNC(=N)N)C(C)C)C(C)C)C(C)C)C(C)C)C(=O)N[C@@H](CCCNC(=N)N)C(=O)N[C@@H](CCCNC(=N)N)C(=O)O` [WLBU-1, RVVRV VRRWV RR] (H-RVVRVVRRWVRR-OH), the MBC with Psuedomonas aeruginosa (0 mM NaCl) was 0.4 µM (≈ 0.655 µg/mL); against Psuedomonas aeruginosa (150 mM NaCl) it was 2.5 µM (≈ 4.09 µg/mL); with Staphylococcus aureus (0 mM NaCl), 30.000 nM (≈ 0.0491 µg/mL); with Staphylococcus aureus (150 mM NaCl) it was 10.000 nM (≈ 0.0164 µg/mL); in assay [1] (0 mM NaCl), 50,000 nanomolar; in assay [1] (150 mM NaCl), 50,000 nanomolar.

Turning to `CC(C)[C@H](NC(=O)[C@H](CCCNC(=N)N)NC(=O)[C@H](CCCNC(=N)N)NC(=O)[C@@H](NC(=O)[C@@H](NC(=O)[C@H](CCCNC(=N)N)NC(=O)[C@@H](N)CCCNC(=N)N)C(C)C)C(C)C)C(=O)N[C@@H](CCCNC(=N)N)C(=O)N[C@@H](CCCNC(=N)N)C(=O)N[C@H](C(=O)N[C@H](C(=O)N[C@@H](CCCNC(=N)N)C(=O)N[C@@H](CCCNC(=N)N)C(=O)N[C@H](C(=O)N[C@H](C(=O)N[C@@H](CCCNC(=N)N)C(=O)N[C@H](C(=O)N[C@H](C(=O)N[C@@H](CCCNC(=N)N)C(=O)N[C@@H](CCCNC(=N)N)C(=O)N[C@H](C(=O)N[C@H](C(=O)N[C@@H](CCCNC(=N)N)C(=O)N[C@@H](CCCNC(=N)N)C(=O)O)C(C)C)C(C)C)C(C)C)C(C)C)C(C)C)C(C)C)C(C)C)C(C)C` [LBU-2, RRVVRRVRRV VRRVV RVVRR VVRR] (H-RRVVRRVRRVVRRVVRVVRRVVRR-OH), the MBC against Psuedomonas aeruginosa (0 mM NaCl) was 1.5 µM (≈ 4.71 µg/mL); in the assay with Psuedomonas aeruginosa (150 mM NaCl) it was 0.8 µM (≈ 2.51 µg/mL); against Staphylococcus aureus (0 mM NaCl), 1500 nM (≈ 4.71 µg/mL); with Staphylococcus aureus (150 mM NaCl), >100,000 nanomolar.

The record behind these values is patent publication EP1368050B1, “VIRUS DERIVED ANTIMICROBIAL PEPTIDES” (priority 2001, dated 2008).
